# Experimental data as given in BindingDB's records for doi:10.1007/s00044-010-9428-9 (n/a, 2011).
# Molecular target: T1, Peroxisome proliferator-activated receptor gamma (Homo sapiens, UniProt P37231)
# T1 sequence (P37231 whole entry): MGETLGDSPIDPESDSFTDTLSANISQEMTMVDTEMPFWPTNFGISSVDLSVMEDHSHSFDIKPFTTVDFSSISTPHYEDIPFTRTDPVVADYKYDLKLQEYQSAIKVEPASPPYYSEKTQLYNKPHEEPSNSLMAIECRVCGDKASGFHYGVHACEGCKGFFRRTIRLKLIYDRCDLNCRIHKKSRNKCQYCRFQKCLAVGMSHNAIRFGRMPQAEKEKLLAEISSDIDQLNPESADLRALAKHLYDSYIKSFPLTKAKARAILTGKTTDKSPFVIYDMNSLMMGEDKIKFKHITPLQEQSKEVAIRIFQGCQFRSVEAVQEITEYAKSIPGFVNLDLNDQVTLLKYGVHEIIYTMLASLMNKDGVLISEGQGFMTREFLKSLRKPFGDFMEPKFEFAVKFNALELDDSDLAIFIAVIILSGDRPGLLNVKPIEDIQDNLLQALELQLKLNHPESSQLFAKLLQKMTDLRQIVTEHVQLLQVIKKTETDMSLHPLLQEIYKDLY
# Experiment: Transactivation activity at PPARgamma (unknown origin)
row,SMILES,EC50 [µM]
1,"C/C(=N\OCCOc1ccc(Cc2sc(=O)[nH]c2O)cc1)c1ccc(-c2ccncc2)cc1 [5-(4-{2-[1-(4-Pyridin-4-yl-phenyl)-eth-(E)-ylideneaminooxy]-ethoxy}-benzyl)-thiazolidine-2,4-dione]",1.6
2,"CC/C(=N\OCCOc1ccc(Cc2sc(=O)[nH]c2O)cc1)c1ccc(-c2ccccc2)cc1 [5-(4-{2-[1-Biphenyl-4-yl-prop-(E)-ylideneaminooxy]-ethoxy}-benzyl)-thiazolidine-2,4-dione]",1.6
3,"C/C(=N\OCCOc1ccc(Cc2sc(=O)[nH]c2O)cc1)c1ccccn1 [5-(4-{2-[1-Pyridin-2-yl-eth-(E)-ylideneaminooxy]-ethoxy}-benzyl)-thiazolidine-2,4-dione]",2.8
4,"C/C(=N\OCCOc1ccc(Cc2sc(=O)[nH]c2O)cc1)c1cccnc1 [5-(4-{2-[1-Pyridin-3-yl-eth-(E)-ylideneaminooxy]-ethoxy}-benzyl)-thiazolidine-2,4-dione]",2.8

# Molecular target: T1, Peroxisome proliferator-activated receptor gamma
# Experiment: Transactivation activity at Homo sapiens (human) PPARgamma
row,SMILES,EC50 [µM]
1,"O=c1[nH]c(O)c(Cc2ccc3c(c2)CC[C@H](Cc2ccccc2)O3)s1 [5-((R)-2-Benzyl-chroman-6-ylmethyl)-thiazolidine-2,4-dione]",1
2,"CCCc1cc(Oc2ccccc2)ccc1OCCCCOc1ccc(-c2sc(=O)[nH]c2O)cc1 [5-{4-[4-(4-Phenoxy-2-propyl-phenoxy)-butoxy]-phenyl}-thiazolidine-2,4-dione]",1
